Reference: US20100261731A1, “Method for Treating a Disease, Disorder or Adverse Effect Caused by an Elevated Serum Concentration of an UGT1A1 Substrate” (Abbott Laboratories, priority 2009, published 2010)

Key:
[1] = system: 1-naphthol glucuronidation; test: Hepatic 1-naphthol glucuronidation activity in liver microsomes of treated rats
UGT1A1 = test: Hepatic 17α-ethinylestradiol glucuronidation activity in liver microsomes of treated rats
[2] = system: UDP-glucuronosyltransferase 1 family, member 1; test: Rat liver microarray (Affymetrix Rat U34), UGT1A probe induction; assay type: in vivo, Sprague-Dawley rats; settings: 3-Day Studies
[3] = system: UDP glucuronosyltransferase, exon 1.; test: as above; assay type: in vivo, Sprague-Dawley rats
[4] = system: UDP-glucuronosyltransferase 1A (UGT1A); test: Rat liver microarray, all UGT1A probe sets; assay type: in vivo, Sprague-Dawley rats; settings: dose levels of 100 mg/kg and higher, after 1 and 3 days of treatment
[5] = system: 3-methylcholanthrene-inducible UDP-glucuronosyltransferase; test: Rat liver microarray (Affymetrix Rat U34), UGT1A probe induction; assay type: in vivo, Sprague-Dawley rats
[6] = Ethinylestradiol pharmacokinetics alone and with ritonavir in healthy female volunteers; assay type: in vivo, human
Procedure: This was an open-label, single-center study in healthy female volunteers who had not received an oral contraceptive for a minimum of six months prior to study start. Subjects received the first dose of oral contraceptive containing 50 μg of ethinyl estradiol on Day 1. […] On Day 15, 300 mg q12h was administered, 400 mg q12h was given on Day 16, and 500 mg q12h was administered thereafter. […] Blood samples for ethinylestradiol concentrations were collected for 48 h after each of the oral contraceptive doses.
Twenty-seven subjects were enrolled in the study. […] Data from these four subjects were therefore excluded from summary statistics. The mean ±SD age of the 23 subjects who completed the study was 34±10 yrs (range 19 to 45 yrs), the mean ±SD weight was 67.3±10.9 kg (range 50.8 to 90.3 kg), and the mean ±SD height was 167±7 cm (range 155 to 180 cm). […]
Analysis of serum samples for determination of ethinyl estradiol was performed at Pharmaco LSR, Richmond, Va. Ethinylestradiol serum concentrations were determined using a gas chromatography/mass spectrometry (GC/MS) method. […] This method has been validated over 17α-ethinylestradiol concentrations ranging from 2.00 to 256 pg/mL for a 1.0 mL serum volume, with a minimum quantitation limit of 2.00 pg/mL.
Ethinylestradiol pharmacokinetic parameters were estimated following two single doses, on Day 1 and Day 29, using noncompartmental methods. The pharmacokinetic parameters were calculated using the intended sampling times; all samples were collected within 10% of intended sampling times. […] The area under the plasma concentration-time curve (AUC∞) was calculated as the sum of AUCt, the area up to the last measurable concentration computed using the linear trapezoidal rule, and the extrapolation to infinity, calculated as the quotient of the last measurable concentration (Ct) and the terminal elimination rate constant (β). The terminal elimination rate constant was calculated as the negative of the slope of the regression of the logarithms of the plasma concentrations vs. time, starting at 18 h post-dose. […]

[7] = system: bilirubin-conjugating activity; settings: cited from earlier work
UGT1A1 isoform = biological target: T1, UGT1A1 isoform (Homo sapiens, UniProt P22309); settings: human cells transfected with the UGT1A1 isoform; cited from earlier work
T1 sequence (P22309 26-533): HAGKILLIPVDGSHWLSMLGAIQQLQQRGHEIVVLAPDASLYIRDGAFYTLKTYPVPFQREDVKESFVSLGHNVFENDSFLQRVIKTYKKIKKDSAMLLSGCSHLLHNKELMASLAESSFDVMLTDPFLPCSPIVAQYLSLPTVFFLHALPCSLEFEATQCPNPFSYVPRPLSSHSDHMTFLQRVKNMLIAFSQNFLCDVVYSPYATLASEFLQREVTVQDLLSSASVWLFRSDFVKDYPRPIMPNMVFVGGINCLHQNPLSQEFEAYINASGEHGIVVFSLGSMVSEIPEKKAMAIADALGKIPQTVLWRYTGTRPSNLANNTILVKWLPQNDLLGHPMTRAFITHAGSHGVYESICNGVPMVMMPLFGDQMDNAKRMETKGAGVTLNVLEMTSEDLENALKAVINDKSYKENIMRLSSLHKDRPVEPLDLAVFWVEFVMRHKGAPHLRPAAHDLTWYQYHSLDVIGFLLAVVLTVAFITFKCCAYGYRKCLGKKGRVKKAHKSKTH

[8] = subjects taking atazanavir, one study; cited from earlier work
[9] = system: bilirubin conjugation in human microsomes; settings: in vitro system of human microsomes; cited from earlier work
[10] = 1-Day Studies, 50 mg/kg oral (second column)
[11] = 3-Day Studies, 100 mg/kg oral daily
[12] = 3-Day Studies, 125 mg/kg oral daily
[13] = serum ethinylestradiol, single 50 μg oral contraceptive dose, Mean ± SD, n = 23, alone Day 1, with ritonavir 500 mg q12h Day 29

CCC1(c2ccccc2)C(=O)NC(=O)NC1=O [Phenobarbitol]
1-naphthol glucuronidation ([1]; Females, T3: phenobarbital 50 mg/kg intraperitoneal daily 4 days, 50 μM substrate): 9.3 ± 0.4 nmol/mg/min
1-naphthol glucuronidation ([1]; Females, T3: phenobarbital 50 mg/kg intraperitoneal daily 4 days, 1000 μM substrate): 46.4 ± 8.6 nmol/mg/min
1-naphthol glucuronidation ([1]; Males, T3: phenobarbital 50 mg/kg intraperitoneal daily 4 days, 50 μM substrate): 15.4 ± 3.1 nmol/mg/min
1-naphthol glucuronidation ([1]; Males, T3: phenobarbital 50 mg/kg intraperitoneal daily 4 days, 1000 μM substrate): 41.0 ± 5.0 nmol/mg/min
17α-ethinylestradiol glucuronidation (UGT1A1; Females, T3: phenobarbital 50 mg/kg intraperitoneal daily 4 days, 100 μM substrate): 91.0 ± 34.0 pmol/mg/min
17α-ethinylestradiol glucuronidation (UGT1A1; Females, T3: phenobarbital 50 mg/kg intraperitoneal daily 4 days, 250 μM substrate): 360.6 ± 88.1 pmol/mg/min
17α-ethinylestradiol glucuronidation (UGT1A1; Males, T3: phenobarbital 50 mg/kg intraperitoneal daily 4 days, 100 μM substrate): 45.1 ± 16.5 pmol/mg/min
17α-ethinylestradiol glucuronidation (UGT1A1; Males, T3: phenobarbital 50 mg/kg intraperitoneal daily 4 days, 250 μM substrate): 258.5 ± 98.5 pmol/mg/min

CC(C)c1nc(CN(C)C(=O)N[C@H](C(=O)N[C@@H](Cc2ccccc2)C[C@H](O)[C@H](Cc2ccccc2)NC(=O)OCc2cncs2)C(C)C)cs1 [Ritonavir]
Fold change ([2]; 50 mg/kg oral daily (first column)): 1.31 fold
Fold change ([2]; 50 mg/kg oral daily (second column)): 1.33 fold
1-naphthol glucuronidation ([1]; Females, T1: ritonavir 15 mg/kg oral daily 14 days, 50 μM substrate): 7.3 ± 1.2 nmol/mg/min
1-naphthol glucuronidation ([1]; Females, T1: ritonavir 15 mg/kg oral daily 14 days, 1000 μM substrate): 33.7 ± 5.2 nmol/mg/min
1-naphthol glucuronidation ([1]; Females, T2: ritonavir 50 mg/kg oral daily 14 days, 50 μM substrate): 10.0 ± 2.7 nmol/mg/min
1-naphthol glucuronidation ([1]; Females, T2: ritonavir 50 mg/kg oral daily 14 days, 1000 μM substrate): 37.7 ± 4.9 nmol/mg/min
1-naphthol glucuronidation ([1]; Males, T1: ritonavir 15 mg/kg oral daily 14 days, 50 μM substrate): 9.5 ± 1.5 nmol/mg/min
1-naphthol glucuronidation ([1]; Males, T1: ritonavir 15 mg/kg oral daily 14 days, 1000 μM substrate): 23.0 ± 2.5 nmol/mg/min
1-naphthol glucuronidation ([1]; Males, T2: ritonavir 50 mg/kg oral daily 14 days, 50 μM substrate): 8.3 ± 1.4 nmol/mg/min
1-naphthol glucuronidation ([1]; Males, T2: ritonavir 50 mg/kg oral daily 14 days, 1000 μM substrate): 22.8 ± 4.3 nmol/mg/min
17α-ethinylestradiol glucuronidation (UGT1A1; Females, T1: ritonavir 15 mg/kg oral daily 14 days, 100 μM substrate): 54.5 ± 24.0 pmol/mg/min
17α-ethinylestradiol glucuronidation (UGT1A1; Females, T1: ritonavir 15 mg/kg oral daily 14 days, 250 μM substrate): 336.4 ± 75.8 pmol/mg/min
17α-ethinylestradiol glucuronidation (UGT1A1; Females, T2: ritonavir 50 mg/kg oral daily 14 days, 100 μM substrate): 146.5 ± 26.0 pmol/mg/min
17α-ethinylestradiol glucuronidation (UGT1A1; Females, T2: ritonavir 50 mg/kg oral daily 14 days, 250 μM substrate): 590.9 ± 101.2 pmol/mg/min
17α-ethinylestradiol glucuronidation (UGT1A1; Males, T1: ritonavir 15 mg/kg oral daily 14 days, 100 μM substrate): 58.8 ± 2.2 pmol/mg/min
17α-ethinylestradiol glucuronidation (UGT1A1; Males, T1: ritonavir 15 mg/kg oral daily 14 days, 250 μM substrate): 171.8 ± 38.1 pmol/mg/min
17α-ethinylestradiol glucuronidation (UGT1A1; Males, T2: ritonavir 50 mg/kg oral daily 14 days, 100 μM substrate): 34.0 ± 10.0 pmol/mg/min
17α-ethinylestradiol glucuronidation (UGT1A1; Males, T2: ritonavir 50 mg/kg oral daily 14 days, 250 μM substrate): 290.1 ± 45.6 pmol/mg/min
glucuronidation of 17α-ethinylestradiol, a UGT1A1 substrate (UGT1A1; both male and female rats): significantly increase
increase in glucuronidation of 17α-ethinylestradiol (UGT1A1; both male and female rats treated with 50 mg/kg/day): 2 fold
Fold change [3, 10]: 2.43 fold
Fold change [3, 11]: 3.96 fold
Fold change [3, 12]: 5.06 fold
UG1A levels for all probe sets [4]: consistent increase
Fold change ([5]; 1-Day Studies, 20 mg/kg oral (first column)): 1.83 fold
Fold change ([5]; 1-Day Studies, 20 mg/kg oral (second column)): 1.54 fold
Fold change ([5]; 1-Day Studies, 50 mg/kg oral (first column)): 1.63 fold
Fold change [5, 10]: 2.1 fold
Fold change ([5]; 3-Day Studies, 50 mg/kg oral daily (first column)): 1.54 fold
Fold change ([5]; 3-Day Studies, 50 mg/kg oral daily (second column)): 1.85 fold
Fold change ([5]; 3-Day Studies, 75 mg/kg oral daily): 1.97 fold
Fold change [5, 11]: 2.26 fold
Fold change [5, 12]: 2.25 fold

C#C[C@]1(O)CC[C@H]2[C@@H]3CCc4cc(O)ccc4[C@H]3CC[C@@]21C [Ethinylestradiol, 17α-ethinylestradiol]
Tmax [6, 13]: 4.0 ± 1.7 h
β (terminal elimination rate constant) [6, 13]: 0.0407 ± 0.0082 h⁻¹
time at which serum ethinylestradiol concentrations peaked post-dose ([6]; single dose of oral contraceptive): approximately 4 h

CC(C)(C)NC(=O)[C@@H]1CN(Cc2cccnc2)CCN1C[C@@H](O)C[C@@H](Cc1ccccc1)C(=O)N[C@H]1c2ccccc2C[C@H]1O [indinavir, Indinavir]
inhibition of bilirubin-conjugating activity [7]: direct inhibition of bilirubin-conjugating activity

COC(=O)N[C@H](C(=O)N[C@@H](Cc1ccccc1)[C@@H](O)CN(Cc1ccc(-c2ccccn2)cc1)NC(=O)[C@@H](NC(=O)OC)C(C)(C)C)C(C)(C)C [atazanavir, Atazanavir]
inhibition of bilirubin conjugation (UGT1A1 isoform): inhibits bilirubin conjugation in the micromolar range
subjects exhibiting unconjugated hyperbilirubinemia [8]: 57%
inhibition of bilirubin conjugation [9]: inhibits bilirubin conjugation in the micromolar range
